In patent US20060166866A1, “Cell adhesion inhibitors” (Biogen, Inc., a Massachusetts corporation, priority 1995, published 2006):

Biological target: T1, VLA4 (Homo sapiens, UniProt P05556+P13612)
T1 construct: endogenous in cells; host or cells: Ramos cells
Experiment: Inhibition of VLA4-dependent adhesion to BSA-CS1 (fluorescently labelled Ramos cells)
Type: cell-based
Conditions: binding of BCECF-labelled Ramos cells to CS1 peptide-coated wells, 2 mM MnCl2, 30 minutes at room temperature
Text: For example, the cell adhesion inhibitory activity of these compounds may be measured by determining the concentration of inhibitor required to block the binding of VLA-4-expressing cells to fibronectin- or CS1-coated plates. In this assay microtiter wells are coated with either fibronectin (containing the CS-1 sequence) or CS-1. If CS-1 is used, it must be conjugated to a carrier protein, such as bovine serum albumin, in order to bind to the wells. Once the wells are coated, varying concentrations of the test compound are then added together with appropriately labelled, VLA-4-expressing cells. Alternatively, the test compound may be added first and allowed to incubate with the coated wells prior to the addition of the cells. The cells are allowed to incubate in the wells format least 30 minutes. Following incubation, the wells are emptied and washed. Inhibition of binding is measured by quantitating the fluorescence or radioactivity bound to the plate for each of the various concentrations of test compound, as well as for controls containing no test compound.
VLA-4-expressing cells that may be utilized in this assay include Ramos cells, Jurkat cells, A375 melanoma cells, as well as human peripheral blood lymophocytes (PBLs). The cells used in this assay may be fluorescently or radioactively labelled.
This assay was used to assess the potency of VLA4-directed inhibitory compounds of this invention.
1. Conjugation of CS1 to BSA
We dissolved BSA-SMCC (Pierce Chemical, Rockford, Ill.; Catalog,# 77115) in H2O at a concentration of 10 mg/mL. [SEQ ID NO:4]:Cys-Tyr-Asp-Glu-Leu-Pro-Gln-Leu-Val-Thr-Leu-Pro-His-Pro-Asn-Leu-His-GIy-Pro-Glu-Ile-Leu-Asp-Val-Pro-Ser-Thr (“Cys-Tyr-CS1 peptide”), which we synthesized by conventional solid phase chemistry and purified by HPLC, was dissolved in 10 mM HEPES pH 5, 50 mM NaCl and 0.1 mM EDTA also at a concentration of 10 mg/mL. We then mixed 500 μL of BSA-SMCC, 250 μL of Cys-Tyr-CS1 peptide and 75 μL of […] and allowed the conjugation reaction to proceed for 30 minutes. We stopped the reaction by adding 1 μL of beta-mercaptoethanol. Samples were analyzed for cross-linking by SDS-PAGE. This reaction produced multiple molecules of the Cys-Tyr-CS1 peptide conjugate to each BSA molecule.
2. Preparation of Plates for Adhesion Assay
We coated the wells of a Linbro titertek polystyrene 96-well flat bottom plate (Flow Laboratories, Maclean, Va.; catalog #76-231-05) with 100 μL of the above-described BSA-CS1 solution diluted to 1 μg/mL in 0.05 M NaHCO3 (15 mM NaHCO3, 35 mM Na2CO3) pH 9.2. Some wells were not coated with CS1 in order to assess non-specific cell binding (NSB). The plate was then incubated overnight at 4° C.
Following this incubation, the contents of the wells were removed by inverting and blotting the plate. All of the wells were then blocked with 100 μL of 1% BSA in PBS, 0.02% NaN3, for a minimum of one hour at room temperature.
3. Preparation of Fluorescently Labelled Ramos Cells
Ramos cells are grown, maintained and labelled in RPMI 1640 culture medium containing 1% BSA. Just prior to running the assay, we added 2′,7′-bis-(2-carboxyethyl)-5 (and -6) carboxyfluorescein acetoxymethyl ester (“BCECF-AM”; Molecular Probes Inc., Eugene, Oreg.; catalog #B-1150) to a final concnetration of 2 μM to a culture of Ramos cells (4×10^6 cells/mL). We incubated the cells for 20 minutes at 37° C.
Following labelling, the cells were washed twice in assay buffer (24 mM TRIS, 137 mM NaCl, 2.7 mM KCl, pH 7.4, containing 0.1% BSA and 2 mM glucose) to remove any cations originating from the culture medium. The cells were then resuspended in assay buffer to 4×10^6 cells/mL and 2 mM MnCl2 was added to upregulate VLA4 on the surface of the cells.
Immediately prior to running the assay, we removed the BSA blocking solution from the 96-well plates and washed the wells with 100 μL of assay buffer. We then added to each well 25 μL of test compound at 2× the final concentration and 25 μL of the labelled Ramos cells. […]

T1 sequence (P13612 34-1032): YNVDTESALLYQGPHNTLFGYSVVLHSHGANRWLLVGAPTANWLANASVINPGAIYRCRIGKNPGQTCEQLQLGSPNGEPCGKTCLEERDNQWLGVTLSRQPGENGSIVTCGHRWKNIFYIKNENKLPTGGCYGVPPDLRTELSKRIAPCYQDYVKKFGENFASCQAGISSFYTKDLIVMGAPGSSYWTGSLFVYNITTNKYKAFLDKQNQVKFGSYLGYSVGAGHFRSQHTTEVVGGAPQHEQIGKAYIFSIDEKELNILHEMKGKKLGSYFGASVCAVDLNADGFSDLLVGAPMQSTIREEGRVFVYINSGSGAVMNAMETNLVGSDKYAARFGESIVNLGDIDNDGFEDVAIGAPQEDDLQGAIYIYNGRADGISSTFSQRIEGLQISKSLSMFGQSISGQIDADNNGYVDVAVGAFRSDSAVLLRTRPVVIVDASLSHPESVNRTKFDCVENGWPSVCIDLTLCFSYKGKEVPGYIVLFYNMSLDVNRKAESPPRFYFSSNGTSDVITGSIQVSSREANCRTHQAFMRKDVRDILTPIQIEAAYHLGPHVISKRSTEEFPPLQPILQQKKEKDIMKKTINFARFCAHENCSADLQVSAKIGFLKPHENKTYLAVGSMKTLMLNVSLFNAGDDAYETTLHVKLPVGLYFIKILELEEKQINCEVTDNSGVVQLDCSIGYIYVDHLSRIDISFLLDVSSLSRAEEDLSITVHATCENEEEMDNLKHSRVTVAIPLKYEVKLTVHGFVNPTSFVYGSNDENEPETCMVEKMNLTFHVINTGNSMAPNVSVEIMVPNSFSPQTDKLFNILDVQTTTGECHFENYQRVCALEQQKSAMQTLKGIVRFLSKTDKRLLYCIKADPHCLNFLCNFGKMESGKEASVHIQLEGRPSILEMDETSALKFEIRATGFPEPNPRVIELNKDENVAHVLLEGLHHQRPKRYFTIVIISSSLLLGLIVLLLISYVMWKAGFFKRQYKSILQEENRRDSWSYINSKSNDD
T1 sequence (P05556 21-798): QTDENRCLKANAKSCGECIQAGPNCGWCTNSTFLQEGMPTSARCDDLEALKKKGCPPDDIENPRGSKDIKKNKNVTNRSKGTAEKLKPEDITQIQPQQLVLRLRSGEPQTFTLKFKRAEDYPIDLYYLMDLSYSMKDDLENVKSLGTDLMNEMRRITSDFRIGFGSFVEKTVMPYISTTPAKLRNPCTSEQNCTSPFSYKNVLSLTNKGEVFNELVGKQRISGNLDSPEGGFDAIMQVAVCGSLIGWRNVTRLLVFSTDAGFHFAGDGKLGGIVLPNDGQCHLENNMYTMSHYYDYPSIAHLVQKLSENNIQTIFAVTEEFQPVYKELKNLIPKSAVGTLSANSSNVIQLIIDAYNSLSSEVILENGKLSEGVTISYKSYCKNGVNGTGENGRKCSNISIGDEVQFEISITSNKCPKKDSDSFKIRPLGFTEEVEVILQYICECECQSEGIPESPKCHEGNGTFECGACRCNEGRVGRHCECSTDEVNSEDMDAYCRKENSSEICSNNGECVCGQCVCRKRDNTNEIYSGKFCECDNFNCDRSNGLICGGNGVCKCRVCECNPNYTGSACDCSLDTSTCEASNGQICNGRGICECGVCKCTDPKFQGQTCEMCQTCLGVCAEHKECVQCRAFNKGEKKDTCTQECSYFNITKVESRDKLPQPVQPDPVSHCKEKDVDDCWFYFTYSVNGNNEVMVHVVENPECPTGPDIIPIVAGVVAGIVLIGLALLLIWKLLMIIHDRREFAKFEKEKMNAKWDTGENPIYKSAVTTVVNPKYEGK

SMILES	IC50
Cc1ccc(NC(=O)Nc2ccc(CC(=O)NC(CC(C)C)C(=O)NC(CC(=O)O)c3ccc4c(c3)OCO4)cc2)cc1 (stereo not shown) [BIO-1067]	50 to 10000 nM
CC(C)CC(NC(=O)Cc1ccc(NC(=O)NC(C)(C)C)cc1)C(=O)NC(CC(=O)O)c1ccc2c(c1)OCO2 (stereo not shown) [BIO-1076]	50 to 10000 nM
CC(C)CC(NC(=O)CC(c1ccccc1)c1ccccc1)C(=O)NC(CC(=O)O)c1ccccc1 (stereo not shown) [BIO-1099]	> 10000 nM
CC(C)CC(NC(=O)Nc1ccc([N+](=O)[O-])cc1)C(=O)NC(CC(=O)O)c1ccccc1 (stereo not shown) [BIO-1108]	> 10000 nM
CC(C)CC(NC(=O)Cc1ccc(NC(=O)Nc2ccccc2)cc1)C(=O)NC(CC(=O)O)c1ccc2c(c1)OCO2 (stereo not shown) [BIO-1128]	50 to 10000 nM
O=C(O)CC(NC(=O)C(CSCc1ccccc1)NC(=O)Cc1ccc(NC(=O)Nc2ccccc2)cc1)c1ccccc1 (stereo not shown) [BIO-1136]	50 to 10000 nM
COc1cccc(C(CC(=O)O)NC(=O)C(CC(C)C)NC(=O)Cc2ccccc2)c1 (stereo not shown) [BIO-1160]	50 to 10000 nM
CC(C)CNC(=O)C(CC(=O)O)NC(=O)C(CC(C)C)NC(=O)Cc1ccc(NC(=O)Nc2ccccc2)cc1 (stereo not shown) [BIO-1186]	50 to 10000 nM
COc1ccc(C(CC(=O)O)NC(=O)C(CC(C)C)NC(=O)Cc2ccc(NC(=O)Nc3ccccn3)cc2)cc1 (stereo not shown) [BIO-1194]	< 50 nM
CC(C)CC(NC(=O)Cc1ccc(NC(=O)Nc2ccccc2)cc1)C(=O)NC(CC(=O)O)c1ccc(F)c(F)c1 (stereo not shown) [BIO-1195]	< 50 nM
Cc1ccccc1NC(=O)Nc1ccc(CC(=O)NC(CC(C)C)C(=O)NC(CC(=O)O)c2ccccc2)cc1 (stereo not shown) [BIO-1197]	< 50 nM
COc1ccc(C(CC(=O)O)NC(=O)C(CC(C)C)NC(=O)Cc2ccc(NC(=O)Nc3ccccc3C)cc2)cc1OC (stereo not shown) [BIO-1212]	< 50 nM
Cc1ccccc1NC(=O)Nc1ccc(CC(=O)NC(CSCCCO)C(=O)NC(CC(=O)O)c2ccc3c(c2)OCO3)cc1 (stereo not shown) [BIO-1246]	< 50 nM
COC(=O)NCCCCC(NC(=O)Cc1ccc(NC(=O)Nc2ccccc2C)cc1)C(=O)NC(CC(=O)O)c1ccc2c(c1)OCO2 (stereo not shown) [BIO-1272]	< 50 nM
COC(=O)NCCCCC(NC(=O)Cc1ccc(NC(=O)Nc2ncccc2C)cc1)C(=O)NC(CC(=O)O)c1ccc(OC)c(OC)c1 (stereo not shown) [BIO-1311]	50 to 10000 nM
CC(C)CC(NC(=O)Cc1ccc(NC(=O)n2ccc3ccccc32)cc1)C(=O)NC(CC(=O)O)c1ccc2c(c1)OCO2 (stereo not shown) [BIO-1327]	50 to 10000 nM
Cc1ccccc1NC(=O)Nc1ccc(CC(=O)NC(CSCCN(C)C)C(=O)NC(CC(=O)O)c2ccc3c(c2)OCO3)cc1 (stereo not shown) [BIO-1345]	< 50 nM
COc1ccc(C(CC(=O)O)NC(=O)C(CCSC)NC(=O)Cc2ccc(NC(=O)Nc3ccccn3)cc2)cc1OC (stereo not shown) [BIO-1347]	< 50 nM
CC(C)CC(NC(=O)Cc1ccc(NC(=S)Nc2ccccc2)cc1)C(=O)NC(CC(=O)O)c1ccc2c(c1)OCO2 (stereo not shown) [BIO-1358]	50 to 10000 nM

SMILES	IC50
Cc1ccccc1NC(=O)Nc1ccc(CC(=O)NC(CC(C)C)C(=O)NC(CC(=O)O)c2ccc3c(c2)CCO3)cc1 (stereo not shown) [BIO-1360]	< 50 nM
COC(=O)c1ccc(C(CC(=O)O)NC(=O)C(CCSC)NC(=O)Cc2ccc(NC(=O)Nc3ccccc3C)cc2)cc1 (stereo not shown) [BIO-1361]	< 50 nM
COC(=O)c1ccc(C(CC(=O)O)NC(=O)C(CC(C)C)NC(=O)Cc2ccc(NC(=O)Nc3ccccc3)cc2)cc1 (stereo not shown) [BIO-1388]	< 50 nM
CSCCC(NC(=O)Cc1ccc(NC(=O)Nc2ccccn2)cc1)C(=O)NC(CC(=O)O)c1ccc2c(c1)OCO2 (stereo not shown) [BIO-1393]	< 50 nM
CC(C)CC(NC(=O)Cc1ccc(Nc2nc3ccccc3o2)cc1)C(=O)NC(CC(=O)O)c1ccc2c(c1)OCO2 (stereo not shown) [BIO-1396]	50 to 10000 nM
Cc1ccccc1NC(=O)Nc1ccc(CC(=O)NC(CC(C)C)C(=O)NC(CCc2ccccc2)CC(=O)O)cc1 (stereo not shown) [BIO-1400]	< 50 nM
CSCCC(NC(=O)Cc1ccc(NC(=O)Nc2ncccc2C)cc1)C(=O)NC(CC(=O)O)c1ccc2c(c1)OCO2 (stereo not shown) [BIO-1429]	50 to 10000 nM
CC(C)CC(NC(=O)Cc1ccc(NC(=O)c2ccc[nH]2)cc1)C(=O)NC(CC(=O)O)c1ccc2c(c1)OCO2 (stereo not shown) [BIO-1474]	50 to 10000 nM
C=CCNC(=O)Nc1ccc(CC(=O)NC(CC(C)C)C(=O)NC(CC(=O)O)c2ccc3c(c2)OCO3)cc1 (stereo not shown) [BIO-1475]	50 to 10000 nM
C#CC(CC(=O)O)NC(=O)C(CC(C)C)NC(=O)Cc1ccc(NC(=O)Nc2ccccc2C)cc1 (stereo not shown) [BIO-1490]	< 50 nM
C=CCC(CC(=O)O)NC(=O)C(CC(C)C)NC(=O)Cc1ccc(NC(=O)Nc2ccccc2C)cc1 (stereo not shown) [BIO-1515]	< 50 nM
COc1ccc(C(CC(=O)O)NC(=O)C(CC(C)C)NC(=O)Cc2ccc(NC(=O)Nc3ccccc3F)cc2)cc1OC (stereo not shown) [BIO-1525]	50 to 10000 nM
COc1ccc(C(CC(=O)O)NC(=O)C(CC(C)C)NC(=O)Cc2ccc(NC(=O)Nc3ccc(F)cc3)cc2)cc1OC (stereo not shown) [BIO-1526]	50 to 10000 nM
Cc1ccccc1NC(=O)Nc1ccc(CC(=O)NC(CC(C)C)C(=O)NC(C)CC(=O)O)cc1 (stereo not shown) [BIO-1536]	< 50 nM
Cc1ccccc1NC(=O)Nc1ccc(CC(=O)NC(CC(C)C)C(=O)NCCC(=O)O)cc1 (stereo not shown) [BIO-1594]	50 to 10000 nM
CC(C)CC(NC(=O)Cc1ccc(NC(=O)c2cc3ccccc3[nH]2)cc1)C(=O)NCCC(=O)O (stereo not shown) [BIO-1648]	50 to 10000 nM
CC(C)CC(NC(=O)Cc1ccc(NC(=O)c2c[nH]c3ccccc23)cc1)C(=O)NC(CC(=O)O)c1ccc2c(c1)OCO2 (stereo not shown) [BIO-1655]	50 to 10000 nM
Cc1ccccc1NC(=O)Nc1ccc(CC(=O)NC(CC(C)C)C(=O)NC(CC(=O)O)CN2CCOCC2)cc1 (stereo not shown) [BIO-1721]	50 to 10000 nM
